# Results as given in US12358863B2, “Nitrogen-containing derivative of substituted phenol hydroxy acid ester, and preparation and use thereof” (priority 2019, dated 2025).
# Where two headings read alike, the source gives them in different places.
# How the values were obtained:
# Kunming mice [1] = assay type: in vivo, mouse
# Method: For each drug, 10 male Kunming mice weighing 20-35 g were included, and the dose of each drug was 2×ED50 in mice. After the compound of the present invention and fospropofol were respectively dissolved in saline, the resultant solutions were injected via the mouse tail vein. For propofol, a glucose dilution (5 mg/mL) of a commercially available emulsion of diprivan was selected and injected via the mouse tail vein; while, for another substituted phenol molecule (CAS:1637741-58-2), its 30% fat emulsion was prepared as a medicated emulsion. The concentration of the injectable solution of the compound according to the present invention was 10-15 mg/mL, and the concentration of the injectable solution of fospropofol was 55 mg/mL, while the concentration of the injectable solution of another substituted phenol molecule (CAS:1637741-58-2) was 1 mg/mL. After injection of tested drug, the occurrence time T1 of righting reflex after its disappearance, the duration T2 for the disappearance of righting reflex (i.e. anesthesia time) and the time T3 required for the animal to recover completely after waking up were recorded. Complete recovery refers to the recovery of autonomous activities of animals to the level before administration. In the experiment, animals were not given respiratory support such as oxygen inhalation or intubation.
# [2] = Decomposition of prodrugs in mouse plasma in vitro (HPLC of released propofol or other substituted phenol); assay type: in vitro ADME; settings: 37° C.
# Method: The prodrug to be tested was prepared into a saline solution of 10 mg/mL. 10 μL of drug-containing solution was added to 990 μL of mouse plasma, vortexed for 30 s, and then incubated at 37° C. At 30 s, 1 min, 5 min, 10 min, 30 min, 60 min and 120 min, 50 μL of drug-containing plasma was collected, to which was immediately added 150 μL of acetonitrile to terminate the enzymatic reaction, and then centrifuged at 20000 rpm and 4° C. for 10 min. 50 μL of supernatant was taken out and injected into HPLC, to determine the concentration of propofol by internal standard method. The decomposition rate of the prodrug was calculated from the concentrations of propofol or other substituted phenols. Chromatographic conditions: Agilent Zorbax XdB C18 column (150 mm)×4.6 mm, 5 μm); column temperature 30° C.; the mobile phase, water:acetonitrile (40:60, v/v); fluorescence wavelength: excitation wavelength (Ex) at 276 nm, emission wavelength (EM) at 310 nm; flow rate: 1.2 mL/min; retention time: internal standard (thymol) 3.9 min, propofol 7.4 min. Linear range of propofol or other substituted phenols: 50-35000 ng/mL. Instruments: Waters 2695 high performance liquid chromatograph, Waters 2475 fluorescence detector.
# Kunming mice [3] = experiment: Determination of therapeutic index (ED50 and LD50, up-and-down method); assay type: in vivo, mouse; settings: half male and half female
# Method: Determination of therapeutic index (TI) of prodrug molecules: by referring the method in literature (Dixon, W. Staircase bioassay: the up-and-down method. Neurosci. Biobehav. Rev. 1991, 15, 47-50), the half-effective dose (ED50) and half-lethal dose (LD50) of the molecule to be tested were determined in Kunming mice (weighing 25-30 g, half male and half female). The therapeutic index for each molecule was calculated according to the equation: TI=LD50/ED50.
# [4] = Table 4 (other substituted phenols and prodrugs), dose 2×ED50, tail vein injection, male Kunming mice
# [5] = Table 3, dose 2×ED50, tail vein injection, male Kunming mice
compound,measurement,setting,value
"CC(C)c1cccc([C@H](C)C2CC2)c1O [(R)-2-cyclopropylethyl-6-isopropylphenol, reference compound]",T1: the onset time after injection,Kunming mice [1]; [4],Immediate
same,T2: the duration of disappearance of righting reflex,Kunming mice [1]; [4],5 to 8 min
same,T3: the time required for righting reflex to recover to autonomous activity,Kunming mice [1]; [4],1 to 2 min
CC(C)c1cccc(C(C)C)c1OC(=O)COC(=O)CN [Compound 1],Decomposition rates of prodrugs,[2]; 30 s,97%
same,Decomposition rates of prodrugs,[2]; 1 min,100%
same,Decomposition rates of prodrugs,[2]; 5 min,100%
same,Decomposition rates of prodrugs,[2]; 10 min,100%
same,Decomposition rates of prodrugs,[2]; 30 min,100%
same,Decomposition rates of prodrugs,[2]; 60 min,100%
same,Decomposition rates of prodrugs,[2]; 120 min,100%
same,T1: the onset time after injection,"Kunming mice [1]; mouse, in vivo",Immediate
same,T2: the duration of disappearance of righting reflex,"Kunming mice [1]; mouse, in vivo",6 to 12 min
same,T3: the time required for righting reflex to recover to autonomous activity,"Kunming mice [1]; mouse, in vivo",1 to 2 min
CNCC(=O)OCC(=O)Oc1c(C(C)C)cccc1C(C)C [Compound 2],Decomposition rates of prodrugs,[2]; 30 s,87%
same,Decomposition rates of prodrugs,[2]; 1 min,98%
same,Decomposition rates of prodrugs,[2]; 5 min,100%
same,Decomposition rates of prodrugs,[2]; 10 min,100%
same,Decomposition rates of prodrugs,[2]; 30 min,100%
same,Decomposition rates of prodrugs,[2]; 60 min,100%
same,Decomposition rates of prodrugs,[2]; 120 min,100%
same,T1: the onset time after injection,"Kunming mice [1]; mouse, in vivo",Immediate
same,T2: the duration of disappearance of righting reflex,"Kunming mice [1]; mouse, in vivo",7 to 15 min
same,T3: the time required for righting reflex to recover to autonomous activity,"Kunming mice [1]; mouse, in vivo",1 to 2 min
CC(C)c1cccc(C(C)C)c1OC(=O)COC(=O)CN(C)C [Compound 3],Decomposition rates of prodrugs,[2]; 30 s,51%
same,Decomposition rates of prodrugs,[2]; 1 min,67%
same,Decomposition rates of prodrugs,[2]; 5 min,80%
same,Decomposition rates of prodrugs,[2]; 10 min,90%
same,Decomposition rates of prodrugs,[2]; 30 min,97%
same,Decomposition rates of prodrugs,[2]; 60 min,100%
same,Decomposition rates of prodrugs,[2]; 120 min,100%
same,T1: the onset time after injection,"Kunming mice [1]; mouse, in vivo",Immediate
same,T2: the duration of disappearance of righting reflex,"Kunming mice [1]; mouse, in vivo",5 to 10 min
same,T3: the time required for righting reflex to recover to autonomous activity,"Kunming mice [1]; mouse, in vivo",1 to 2 min
CC(C)c1cccc(C(C)C)c1OC(=O)COC(=O)[C@H](C)N [Compound 4],Decomposition rates of prodrugs,[2]; 30 s,94%
same,Decomposition rates of prodrugs,[2]; 1 min,100%
same,Decomposition rates of prodrugs,[2]; 5 min,100%
same,Decomposition rates of prodrugs,[2]; 10 min,100%
same,Decomposition rates of prodrugs,[2]; 30 min,100%
same,Decomposition rates of prodrugs,[2]; 60 min,100%
same,Decomposition rates of prodrugs,[2]; 120 min,100%
same,T1: the onset time after injection,Kunming mice [1]; [5],Immediate
same,T2: the duration of disappearance of righting reflex,Kunming mice [1]; [5],5 to 13 min
same,T3: the time required for righting reflex to recover to autonomous activity,Kunming mice [1]; [5],1 to 2 min
CC(C)c1cccc(C(C)C)c1OC(=O)COC(=O)CN1CCN(C)CC1 [Compound 7],Decomposition rates of prodrugs,[2]; 30 s,91%
same,Decomposition rates of prodrugs,[2]; 1 min,100%
same,Decomposition rates of prodrugs,[2]; 5 min,100%
same,Decomposition rates of prodrugs,[2]; 10 min,100%
same,Decomposition rates of prodrugs,[2]; 30 min,100%
same,Decomposition rates of prodrugs,[2]; 60 min,100%
same,Decomposition rates of prodrugs,[2]; 120 min,100%
same,TI (therapeutic index),Kunming mice [3],3.9
same,T3: the time required for righting reflex to recover to autonomous activity,Kunming mice [1]; [5],1 to 2 min
same,T1: the onset time after injection,"Kunming mice [1]; mouse, in vivo",Immediate
same,T2: the duration of disappearance of righting reflex,"Kunming mice [1]; mouse, in vivo",6 to 13 min
CC(C)c1cccc([C@H](C)C2CC2)c1OC(=O)COC(=O)CN1CCOCC1.Cl [Compound 17],Decomposition rates of prodrugs,[2]; 30 s,55%
same,Decomposition rates of prodrugs,[2]; 1 min,63%
same,Decomposition rates of prodrugs,[2]; 5 min,78%
same,Decomposition rates of prodrugs,[2]; 10 min,85%
same,Decomposition rates of prodrugs,[2]; 30 min,100%
same,Decomposition rates of prodrugs,[2]; 60 min,100%
same,Decomposition rates of prodrugs,[2]; 120 min,100%
same,T1: the onset time after injection,Kunming mice [1]; [4],Immediate
same,T2: the duration of disappearance of righting reflex,Kunming mice [1]; [4],5.5 to 8 min
same,T3: the time required for righting reflex to recover to autonomous activity,Kunming mice [1]; [4],1 to 2 min
CC(C)c1cccc([C@H](C)C2CC2)c1OC(=O)COC(=O)CN1CCOCC1 [Compound 19],T1: the onset time after injection,Kunming mice [1]; [4],Immediate
same,T2: the duration of disappearance of righting reflex,Kunming mice [1]; [4],5.5 to 9 min
same,T3: the time required for righting reflex to recover to autonomous activity,Kunming mice [1]; [4],1 to 2 min
CC(C)c1cccc(C(C)C)c1OC(=O)COC(=O)CN1CCOCC1 [Compound 22],Decomposition rates of prodrugs,[2]; 30 s,58%
same,Decomposition rates of prodrugs,[2]; 1 min,66%
same,Decomposition rates of prodrugs,[2]; 5 min,80%
same,Decomposition rates of prodrugs,[2]; 10 min,89%
same,Decomposition rates of prodrugs,[2]; 30 min,100%
same,Decomposition rates of prodrugs,[2]; 60 min,100%
same,Decomposition rates of prodrugs,[2]; 120 min,100%
same,TI (therapeutic index),Kunming mice [3],4.7
same,T3: the time required for righting reflex to recover to autonomous activity,Kunming mice [1]; [5],1 to 2 min
same,T1: the onset time after injection,"Kunming mice [1]; mouse, in vivo",Immediate
same,T2: the duration of disappearance of righting reflex,"Kunming mice [1]; mouse, in vivo",4.5 to 10.5 min
CC(C)c1cccc(C(C)C)c1OC(=O)COC(=O)CN1CCOCC1 [Compound 23],Decomposition rates of prodrugs,[2]; 30 s,89%
same,Decomposition rates of prodrugs,[2]; 1 min,100%
same,Decomposition rates of prodrugs,[2]; 5 min,100%
same,Decomposition rates of prodrugs,[2]; 10 min,100%
same,Decomposition rates of prodrugs,[2]; 30 min,100%
same,Decomposition rates of prodrugs,[2]; 60 min,100%
same,Decomposition rates of prodrugs,[2]; 120 min,100%
same,TI (therapeutic index),Kunming mice [3],4.4
same,T1: the onset time after injection,Kunming mice [1]; [5],Immediate
same,T2: the duration of disappearance of righting reflex,Kunming mice [1]; [5],5 to 13 min
same,T3: the time required for righting reflex to recover to autonomous activity,Kunming mice [1]; [5],1 to 2 min
CC(C)c1cccc(C(C)C)c1OC(=O)COC(=O)CN1CCOCC1 [Compound 27],Decomposition rates of prodrugs,[2]; 30 s,60%
same,Decomposition rates of prodrugs,[2]; 1 min,65%
same,Decomposition rates of prodrugs,[2]; 5 min,79%
same,Decomposition rates of prodrugs,[2]; 10 min,86%
same,Decomposition rates of prodrugs,[2]; 30 min,100%
same,Decomposition rates of prodrugs,[2]; 60 min,100%
same,Decomposition rates of prodrugs,[2]; 120 min,100%
same,TI (therapeutic index),Kunming mice [3],4.5
same,T1: the onset time after injection,Kunming mice [1]; [5],Immediate
same,T2: the duration of disappearance of righting reflex,Kunming mice [1]; [5],4 to 12 min
same,T3: the time required for righting reflex to recover to autonomous activity,Kunming mice [1]; [5],1 to 2 min
CC(C)c1cccc(C(C)C)c1OC(=O)COC(=O)CN1CCCCC1 [Compound 29],Decomposition rates of prodrugs,[2]; 30 s,88%
same,Decomposition rates of prodrugs,[2]; 1 min,100%
same,Decomposition rates of prodrugs,[2]; 5 min,100%
same,Decomposition rates of prodrugs,[2]; 10 min,100%
same,Decomposition rates of prodrugs,[2]; 30 min,100%
same,Decomposition rates of prodrugs,[2]; 60 min,100%
same,Decomposition rates of prodrugs,[2]; 120 min,100%
same,TI (therapeutic index),Kunming mice [3],4.1
same,T3: the time required for righting reflex to recover to autonomous activity,Kunming mice [1]; [5],1 to 2 min
same,T1: the onset time after injection,"Kunming mice [1]; mouse, in vivo",Immediate
same,T2: the duration of disappearance of righting reflex,"Kunming mice [1]; mouse, in vivo",5 to 14 min
CC(C)c1cccc(C(C)C)c1OC(=O)COC(=O)CN1CCC1.Cl [Compound 37],Decomposition rates of prodrugs,[2]; 30 s,75%
same,Decomposition rates of prodrugs,[2]; 1 min,92%
same,Decomposition rates of prodrugs,[2]; 5 min,100%
same,Decomposition rates of prodrugs,[2]; 10 min,100%
same,Decomposition rates of prodrugs,[2]; 30 min,100%
same,Decomposition rates of prodrugs,[2]; 60 min,100%
same,Decomposition rates of prodrugs,[2]; 120 min,100%
same,TI (therapeutic index),Kunming mice [3],3.9
same,T1: the onset time after injection,Kunming mice [1]; [5],Immediate
same,T2: the duration of disappearance of righting reflex,Kunming mice [1]; [5],4 to 10 min
same,T3: the time required for righting reflex to recover to autonomous activity,Kunming mice [1]; [5],1 to 2 min
CC(C)c1cccc(C(C)C)c1OC(=O)COC(=O)[C@@H](C)N(C)C.Cl [Compound 41],Decomposition rates of prodrugs,[2]; 30 s,89%
same,Decomposition rates of prodrugs,[2]; 1 min,100%
same,Decomposition rates of prodrugs,[2]; 5 min,100%
same,Decomposition rates of prodrugs,[2]; 10 min,100%
same,Decomposition rates of prodrugs,[2]; 30 min,100%
same,Decomposition rates of prodrugs,[2]; 60 min,100%
same,Decomposition rates of prodrugs,[2]; 120 min,100%
same,TI (therapeutic index),Kunming mice [3],3.8
same,T1: the onset time after injection,Kunming mice [1]; [5],Immediate
same,T2: the duration of disappearance of righting reflex,Kunming mice [1]; [5],5 to 13 min
same,T3: the time required for righting reflex to recover to autonomous activity,Kunming mice [1]; [5],1 to 2 min
CC(C)c1cccc([C@H](C)C2CC2)c1OC(=O)COC(=O)CN1CCCCC1.Cl [Compound 53],T1: the onset time after injection,Kunming mice [1]; [4],Immediate
same,T2: the duration of disappearance of righting reflex,Kunming mice [1]; [4],5 to 8.5 min
same,T3: the time required for righting reflex to recover to autonomous activity,Kunming mice [1]; [4],1 to 2 min
CC(C)c1cccc([C@@H](C)C2CC2)c1OC(=O)COC(=O)CN1CCCC1.Cl [Compound 55],T1: the onset time after injection,Kunming mice [1]; [4],Immediate
same,T2: the duration of disappearance of righting reflex,Kunming mice [1]; [4],5 to 9 min
same,T3: the time required for righting reflex to recover to autonomous activity,Kunming mice [1]; [4],1 to 2 min
"CC(C)c1cccc(C(C)C)c1O [Propofol, reference compound]",TI (therapeutic index),Kunming mice [3],4.4
same,T1: the onset time after injection,"Kunming mice [1]; mouse, in vivo",Immediate
same,T2: the duration of disappearance of righting reflex,"Kunming mice [1]; mouse, in vivo",5 to 11.5 min
same,T3: the time required for righting reflex to recover to autonomous activity,"Kunming mice [1]; mouse, in vivo",1 to 2 min
